# Data published in ChEMBL document CHEMBL3585339, “Synthesis, biological activities and pharmacokinetic properties of new fluorinated derivatives of selective PDE4D inhibitors” (Bioorg Med Chem, 2015).
# Calls of active or inactive are those of the source. The calls are words filed in the database; no cut-off is given here.
# Experiments:
# [1] = molecular target: T1, 3',5'-cyclic-AMP phosphodiesterase 4D (Homo sapiens, UniProt Q08499); assay: Inhibition of human recombinant PDE4D3 expressed in baculoviral system using cAMP as substrate by fluorescence polarization assay
# [2] = molecular target: T1, 3',5'-cyclic-AMP phosphodiesterase 4D; assay: Inhibition of human recombinant PDE4D3 expressed in baculoviral system using cAMP as substrate at 10 uM by fluorescence polarization assay relative to control
# Mus musculus [3] = assay: Toxicity in mouse assessed as sedative effect by measuring reduction of total distance traveled at 10 mg/kg, po measured over 60 mins by open-field test; assay type: organism-based; conditions: in vivo, 1 h
# [4] = Cytotoxicity against human HTLA-230 cells at 100 uM after 24 hrs by lactate dehydrogenase release assay (reference value: 0.67 +/- 0.24%); assay type: cell-based; conditions: htla-230, 24 h
# [5] = molecular target: 3',5'-cyclic-AMP phosphodiesterase 4A (Homo sapiens) (UniProt P27815); assay: Inhibition of human recombinant PDE4A4 expressed in baculoviral system using cAMP as substrate at 10 uM by fluorescence polarization assay relative to control
# [6] = molecular target: 3',5'-cyclic-AMP phosphodiesterase 4B (Homo sapiens) (UniProt Q07343); assay: Inhibition of human recombinant PDE4B2 expressed in baculoviral system using cAMP as substrate at 10 uM by fluorescence polarization assay relative to control
# [7] = Cytotoxicity against human HTLA-230 cells at 10 uM after 24 hrs by lactate dehydrogenase release assay (reference value: 0.67 +/- 0.24%); assay type: cell-based; conditions: htla-230, 24 h
# Mus musculus [8] = assay: Toxicity in mouse assessed as sedative effect by measuring prolongation of immobility time at 10 mg/kg, po measured over 60 mins by open-field test; assay type: organism-based; conditions: in vivo, 1 h
# [9] = Genotoxicity in human HTLA-230 cells assessed as gamma-H2AX production at 100 uM after 24 hrs by Western blot analysis; assay type: toxicity, cell-based; conditions: htla-230, 24 h
# [10] = Plasma concentration in BALB/c mouse at 10 mg/kg, sc measured at 0.33 hrs by LC-MS/MS analysis; assay type: ADME, organism-based
# [11] = Drug uptake in BALB/c mouse brain at 10 mg/kg, sc measured at 2 hrs by LC-MS/MS analysis; assay type: ADME, organism-based; conditions: read-out: Drug uptake
# [12] = Plasma concentration in BALB/c mouse at 10 mg/kg, sc measured at 2 hrs by LC-MS/MS analysis; assay type: ADME, organism-based
# [13] = Effect on cAMP level in human HTLA-230 cells at 100 uM after 10 mins by enzyme immunoassay; assay type: ADME, cell-based; conditions: htla-230, 10 min
# [14] = Plasma concentration in BALB/c mouse at 10 mg/kg, sc measured at 0.17 hrs by LC-MS/MS analysis; assay type: ADME, organism-based
# [15] = Elimination half life in BALB/c mouse brain at 10 mg/kg, sc by LC-MS/MS analysis; assay type: ADME, organism-based; conditions: read-out: beta t1/2 (converted)
# [16] = Plasma concentration in BALB/c mouse at 10 mg/kg, sc measured at 5 hrs by LC-MS/MS analysis; assay type: ADME, organism-based
# [17] = Plasma concentration in BALB/c mouse at 10 mg/kg, sc measured at 1 hr by LC-MS/MS analysis; assay type: ADME, organism-based
# [18] = Plasma concentration in BALB/c mouse at 10 mg/kg, sc measured at 0.67 hrs by LC-MS/MS analysis; assay type: ADME, organism-based
# [19] = Cmax in BALB/c mouse brain at 10 mg/kg, sc by LC-MS/MS analysis; assay type: ADME, organism-based; design: dose 10 mg/kg, route subcutaneous
# [20] = Drug uptake in BALB/c mouse brain at 10 mg/kg, sc measured at 1 hr by LC-MS/MS analysis; assay type: ADME, organism-based; conditions: read-out: Drug uptake
# [21] = AUC (0 to t) in BALB/c mouse plasma at 10 mg/kg, sc by LC-MS/MS analysis; assay type: ADME, organism-based
# Brain = assay: AUC (0 to t) in BALB/c mouse brain at 10 mg/kg, sc by LC-MS/MS analysis; assay type: ADME, organism-based; conditions: in vivo
# [22] = molecular target: T1, 3',5'-cyclic-AMP phosphodiesterase 4D; assay: Inhibition of PDE4D in human HTLA-230 cells assessed as increase in forskolin-induced cAMP accumulation at 100 uM pretreated for 10 mins followed by forskolin induction measured after 20 mins by enzyme immunoassay; assay type: cell-based
# [23] = Drug uptake in BALB/c mouse brain at 10 mg/kg, sc measured at 0.17 hrs by LC-MS/MS analysis; assay type: ADME, organism-based; conditions: read-out: Drug uptake
# [24] = Tmax in BALB/c mouse plasma at 10 mg/kg, sc by LC-MS/MS analysis; assay type: ADME, organism-based
# [25] = Drug uptake in BALB/c mouse brain at 10 mg/kg, sc measured at 0.33 hrs by LC-MS/MS analysis; assay type: ADME, organism-based; conditions: read-out: Drug uptake
# [26] = Plasma concentration in BALB/c mouse at 10 mg/kg, sc measured at 3 hrs by LC-MS/MS analysis; assay type: ADME, organism-based
# [27] = Elimination half life in BALB/c mouse plasma at 10 mg/kg, sc by LC-MS/MS analysis; assay type: ADME, organism-based; conditions: read-out: beta t1/2 (converted)
# [28] = Tmax in BALB/c mouse brain at 10 mg/kg, sc by LC-MS/MS analysis; assay type: ADME, organism-based
# [29] = Drug uptake in BALB/c mouse brain at 10 mg/kg, sc measured at 3 hrs by LC-MS/MS analysis; assay type: ADME, organism-based; conditions: read-out: Drug uptake
# [30] = Drug uptake in BALB/c mouse brain at 10 mg/kg, sc measured at 0.67 hrs by LC-MS/MS analysis; assay type: ADME, organism-based; conditions: read-out: Drug uptake
# [31] = Cmax in BALB/c mouse plasma at 10 mg/kg, sc by LC-MS/MS analysis; assay type: ADME, organism-based; design: dose 10 mg/kg, route subcutaneous
# [32] = Ratio of AUC (0 to t) in BALB/c mouse brain to AUC (0 to t) in BALB/c mouse plasma at 10 mg/kg, sc by LC-MS/MS analysis; assay type: ADME, organism-based; conditions: read-out: Ratio AUC
# [33] = Drug uptake in BALB/c mouse brain at 10 mg/kg, sc measured at 5 hrs by LC-MS/MS analysis; assay type: ADME, organism-based; conditions: read-out: Drug uptake
# T1 sequence (Q08499 whole entry): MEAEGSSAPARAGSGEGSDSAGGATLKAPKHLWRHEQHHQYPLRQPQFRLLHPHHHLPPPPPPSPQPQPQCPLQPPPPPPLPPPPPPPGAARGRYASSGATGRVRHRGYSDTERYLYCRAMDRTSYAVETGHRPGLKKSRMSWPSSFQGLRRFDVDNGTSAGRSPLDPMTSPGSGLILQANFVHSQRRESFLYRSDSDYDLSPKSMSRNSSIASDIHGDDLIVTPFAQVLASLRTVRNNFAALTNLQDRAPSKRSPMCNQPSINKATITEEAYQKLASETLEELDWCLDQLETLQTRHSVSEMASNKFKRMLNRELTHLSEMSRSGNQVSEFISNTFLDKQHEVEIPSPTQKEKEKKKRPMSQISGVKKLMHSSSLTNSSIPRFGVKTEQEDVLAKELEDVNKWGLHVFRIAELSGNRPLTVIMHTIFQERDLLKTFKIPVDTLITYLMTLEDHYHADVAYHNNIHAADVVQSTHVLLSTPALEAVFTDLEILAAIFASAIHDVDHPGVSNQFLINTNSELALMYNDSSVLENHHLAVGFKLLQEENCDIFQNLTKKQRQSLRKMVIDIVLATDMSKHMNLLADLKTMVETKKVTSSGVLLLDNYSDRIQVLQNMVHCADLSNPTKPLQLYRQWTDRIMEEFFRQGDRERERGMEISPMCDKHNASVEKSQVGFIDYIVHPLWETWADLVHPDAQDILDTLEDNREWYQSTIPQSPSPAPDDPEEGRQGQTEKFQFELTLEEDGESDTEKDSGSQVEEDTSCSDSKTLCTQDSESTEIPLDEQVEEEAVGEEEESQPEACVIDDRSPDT
# 3',5'-cyclic-AMP phosphodiesterase 4B (Homo sapiens), sequence (Q07343 whole entry): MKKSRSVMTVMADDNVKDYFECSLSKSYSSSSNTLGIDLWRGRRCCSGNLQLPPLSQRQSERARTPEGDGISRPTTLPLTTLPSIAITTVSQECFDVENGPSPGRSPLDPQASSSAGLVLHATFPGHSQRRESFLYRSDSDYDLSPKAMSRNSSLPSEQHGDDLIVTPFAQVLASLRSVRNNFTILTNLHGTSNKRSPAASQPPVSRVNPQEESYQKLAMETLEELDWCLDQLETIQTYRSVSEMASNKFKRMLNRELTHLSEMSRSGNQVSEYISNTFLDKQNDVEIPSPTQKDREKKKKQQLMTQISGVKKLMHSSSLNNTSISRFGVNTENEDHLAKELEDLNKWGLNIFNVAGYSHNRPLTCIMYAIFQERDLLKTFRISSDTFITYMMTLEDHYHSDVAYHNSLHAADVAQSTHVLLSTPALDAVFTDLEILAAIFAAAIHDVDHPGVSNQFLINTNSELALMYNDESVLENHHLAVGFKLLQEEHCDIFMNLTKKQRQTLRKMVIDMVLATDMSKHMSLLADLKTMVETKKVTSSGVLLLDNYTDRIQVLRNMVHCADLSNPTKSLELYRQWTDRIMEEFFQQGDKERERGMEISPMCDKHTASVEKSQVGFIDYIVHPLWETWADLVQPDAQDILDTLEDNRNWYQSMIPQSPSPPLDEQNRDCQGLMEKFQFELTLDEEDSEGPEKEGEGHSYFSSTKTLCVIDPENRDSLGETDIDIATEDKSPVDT
# 3',5'-cyclic-AMP phosphodiesterase 4A (Homo sapiens), sequence (P27815 whole entry): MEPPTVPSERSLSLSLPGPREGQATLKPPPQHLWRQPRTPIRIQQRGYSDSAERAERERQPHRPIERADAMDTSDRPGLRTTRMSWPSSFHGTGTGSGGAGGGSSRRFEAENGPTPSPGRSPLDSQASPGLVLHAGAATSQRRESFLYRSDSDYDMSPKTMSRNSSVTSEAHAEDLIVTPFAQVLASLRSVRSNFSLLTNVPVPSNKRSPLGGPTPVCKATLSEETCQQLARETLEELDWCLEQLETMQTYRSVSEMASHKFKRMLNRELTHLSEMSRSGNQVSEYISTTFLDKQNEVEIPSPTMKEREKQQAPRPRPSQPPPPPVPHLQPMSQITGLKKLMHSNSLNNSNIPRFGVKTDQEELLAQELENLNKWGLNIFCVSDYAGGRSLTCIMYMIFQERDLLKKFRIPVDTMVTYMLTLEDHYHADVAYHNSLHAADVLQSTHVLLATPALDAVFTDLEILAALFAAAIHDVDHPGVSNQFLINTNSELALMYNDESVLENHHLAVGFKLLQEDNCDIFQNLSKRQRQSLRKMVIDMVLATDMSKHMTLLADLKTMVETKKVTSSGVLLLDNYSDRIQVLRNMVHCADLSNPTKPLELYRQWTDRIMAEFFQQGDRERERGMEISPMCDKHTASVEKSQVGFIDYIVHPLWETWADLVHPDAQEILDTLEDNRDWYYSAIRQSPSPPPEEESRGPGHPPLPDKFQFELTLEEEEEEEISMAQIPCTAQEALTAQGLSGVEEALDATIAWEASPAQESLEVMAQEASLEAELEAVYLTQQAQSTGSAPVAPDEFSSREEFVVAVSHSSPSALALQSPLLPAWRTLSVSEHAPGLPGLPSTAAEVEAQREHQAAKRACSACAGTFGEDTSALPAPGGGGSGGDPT
smiles,measurement,setting,value
CC1CN(CC(O)CO/N=C/c2ccc(OC(F)F)c(OC3CCCC3)c2)CC(C)O1 (stereo not given),IC50,[1],190 nM
same,inhibition,[2],84%
same,Activity,Mus musculus [3],Toxic
same,Activity,[4],8.83%
same,inhibition,[5],68%
same,inhibition,[6],68%
same,Activity,[7],0.01%
same,Activity,Mus musculus [8],Toxic
OC(CO/N=C/c1ccc(OC(F)F)c(OC2CCCC2)c1)CN1CCOCC1 (stereo not given),IC50,[1],1490 nM
same,inhibition,[2],83%
same,Activity,[9],Non-toxic
same,Activity,[4],0.21%
same,inhibition,[5],41%
same,inhibition,[6],43%
O=C(CO/N=C/c1ccc(OC(F)F)c(OC2CCCC2)c1)N1CCC(O)CC1,IC50,[1],2630 nM
same,inhibition,[2],60%
same,Activity,[4],4.62%
same,inhibition,[5],28%
same,inhibition,[6],26%
same,Activity,[7],0.01%
CC1CN(NCC(O)CO/N=C/c2ccc(OC(F)F)c(OC3CCCC3)c2)CC(C)O1 (stereo not given),IC50,[1],190 nM
same,inhibition,[2],87%
same,Activity,[4],1.54%
same,inhibition,[5],58%
same,inhibition,[6],51%
OC1CCN(CC(O)CO/N=C/c2ccc(OC(F)F)c(OC3CCCC3)c2)CC1 (stereo not given),IC50,[1],2540 nM
same,inhibition,[2],51%
same,Activity,[4],31.37%
same,inhibition,[5],15%
same,inhibition,[6],15%
same,Activity,[7],3.42%
O=C(CO/N=C/c1ccc(OC(F)F)c(OC2CCCC2)c1)N1CCOCC1,IC50,[1],1120 nM
same,inhibition,[2],63%
same,Activity,[4],2.06%
same,inhibition,[5],36%
same,inhibition,[6],31%
COc1ccc(C2CNC(=O)C2)cc1OC1CCCC1 (stereo not given) [ROLIPRAM],Activity,Mus musculus [3],Toxic
same,Activity,Mus musculus [8],Toxic
COc1ccc(/C=N/OCC(O)CN2CC(C)OC(C)C2)cc1OC1CCCC1 (stereo not given),Activity,Mus musculus [3],Non-toxic
same,Activity,Mus musculus [8],Non-toxic
CC1CN(C(=O)CCO/N=C/c2ccc(OC(F)F)c(OC3CCCC3)c2)CC(C)O1 (stereo not given),IC50,[1],470 nM
same,inhibition,[2],63%
same,Activity,[9],Non-toxic
same,Activity,[4],0.01%
same,inhibition,[5],34%
same,inhibition,[6],37%
COc1cc([C@@H]2c3cc4c(cc3[C@@H](O[C@@H]3O[C@@H]5CO[C@@H](C)O[C@H]5[C@H](O)[C@H]3O)[C@H]3COC(=O)[C@H]23)OCO4)cc(OC)c1O [ETOPOSIDE],Activity,[9],Toxic
CN1C(=O)CN=C(c2ccccc2)c2cc(Cl)ccc21 [DIAZEPAM],Activity,Mus musculus [3],Toxic
same,Activity,Mus musculus [8],Toxic
COc1ccc(/C=N/OCC(=O)N2CC(C)OC(C)C2)cc1OC1CCCC1 (stereo not given),concentration at 0.33 h,[10],1310 ng/mL
same,concentration at 2 h,[11],2.21 ng/g
same,concentration at 2 h,[12],20 ng/mL
same,Activity,[13],Non-toxic
same,concentration at 0.17 h,[14],4410 ng/mL
same,half-life,[15],32.4 min
same,concentration at 5 h,[16],10.4 ng/mL
same,concentration at 1 h,[17],32.8 ng/mL
same,concentration at 0.67 h,[18],343 ng/mL
same,Cmax,[19],936 ng/g
same,concentration at 1 h,[20],3.29 ng/g
same,AUC(0-t),[21],1890 ng·h/mL
same,AUCt,Brain,812 ng·h/g
same,inhibition,[22],Active
same,concentration at 0.17 h,[23],1570 ng/g
same,Activity,Mus musculus [3],Non-toxic
same,Tmax,[24],10.2 min
same,concentration at 0.33 h,[25],396 ng/g
same,concentration at 3 h,[26],2.18 ng/mL
same,half-life,[27],49.2 min
same,Tmax,[28],10.2 min
same,concentration at 3 h,[29],1.19 ng/g
same,Activity,[9],Non-toxic
same,concentration at 0.67 h,[30],84.2 ng/g
same,Activity,[4],0.14%
same,Cmax,[31],2160 ng/mL
same,Kp,[32],0.358
same,Activity,Mus musculus [8],Non-toxic
CC1CN(C(=O)CO/N=C/c2ccc(OC(F)F)c(OC3CCCC3)c2)CC(C)O1 (stereo not given),concentration at 0.33 h,[10],1740 ng/mL
same,concentration at 2 h,[11],96 ng/g
same,concentration at 2 h,[12],217 ng/mL
same,Activity,[13],Non-toxic
same,concentration at 0.17 h,[14],2160 ng/mL
same,IC50,[1],4840 nM
same,half-life,[15],81.6 min
same,concentration at 5 h,[16],67.2 ng/mL
same,concentration at 1 h,[17],657 ng/mL
same,concentration at 0.67 h,[18],1090 ng/mL
same,inhibition,[2],74%
same,Cmax,[19],1570 ng/g
same,concentration at 1 h,[20],303 ng/g
same,AUC(0-t),[21],1220 ng·h/mL
same,AUCt,Brain,391 ng·h/g
same,inhibition,[22],Active
same,concentration at 0.17 h,[23],936 ng/g
same,Activity,Mus musculus [3],Non-toxic
same,Tmax,[24],10.2 min
same,concentration at 0.33 h,[25],790 ng/g
same,concentration at 3 h,[26],11.6 ng/mL
same,half-life,[27],42 min
same,concentration at 5 h,[33],2.94 ng/g
same,Tmax,[28],10.2 min
same,concentration at 3 h,[29],5.45 ng/g
same,Activity,[9],Non-toxic
same,concentration at 0.67 h,[30],453 ng/g
same,Activity,[4],0.01%
same,inhibition,[5],32%
same,inhibition,[6],29%
same,Cmax,[31],4410 ng/mL
same,Kp,[32],0.429
same,Activity,Mus musculus [8],Non-toxic
